Reference: patent US8247211B2, “Glycopeptide antibiotics” (American Cyanamid Company, priority 2001, dated 2012)
In brackets after ≈: the same amount, converted by molar mass.

Key:
[1] = Anatomic pathology (heart and kidney histopathology) in mice; type: in vivo, CD-1 mice; conditions: 20 mg/kg intravenously daily for 9 days, microscopic histopathology on day 10
In short: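 Juvenile CD-1 mice (20 days old; 5 vehicle, 5 treated) received glycopeptide antibiotic 20 mg/kg i.v. daily for 9 days. Necropsied tissues formalin-fixed, paraffin-embedded, H&E stained and examined microscopically; findings graded slight to severe versus controls.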

[2] = tested on: Staphylococcus aureus-SMITH (GC 4543); assay: Acute lethal infection in mice (ED50); type: in vivo; conditions: female CD-1 mice, intraperitoneal challenge, intravenous dose 30 min. after infection, 7 day survival ratios
In short: (§1)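 Median effective dose is calculated from 7-day survival ratios pooled across three separate tests. Mice (female CD-1) receive an intraperitoneal bacterial challenge in broth or hog gastric mucin, then intravenous drug 30 min later, five animals per dose level.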

[3] = tested on: Enterococcus faecalis (GC 6189), vancomycin resistant strain; assay: Acute lethal infection in mice (ED50); type: in vivo; conditions: female CD-1 mice, intraperitoneal challenge, intravenous dose 30 min. after infection, 7 day survival ratios
In short: as §1

[4] = tested on: Streptococcus pneumoniae (GC 1894), penicillin resistant strain; assay: Acute lethal infection in mice (ED50); type: in vivo; conditions: female CD-1 mice, intraperitoneal challenge, intravenous dose 30 min. after infection, 7 day survival ratios
In short: as §1

Streptococcus sp. = assay: In vitro antibacterial evaluation: minimum inhibitory concentration (MIC), broth dilution method; type: cell-based; conditions: broth dilution, 18 hours at 35° C.
In short: (§2)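 MIC read as lowest drug level preventing visible growth. Organisms at 5×10^5 CFU/mL were exposed to a 64-0.06 μg/mL dilution series in Muller-Hinton II […] following NCCLS broth dilution standard M7-A2.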

Escherichia coli = assay: as above; type: cell-based; conditions: 5×10^5 CFU/mL, 18 hours at 35° C.
In short: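 Following NCCLS approved standard M7-A2, compounds are serially diluted from 64 to 0.06 μg/mL in Muller-Hinton II […] and inoculated at 5×10^5 CFU/mL; the MIC is the minimum concentration at which growth is inhibited.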

Staphylococcus sp. = assay: as above; type: cell-based; conditions: for MIC Staphylococcus aureus (ATCC 29213): strain ATCC 29213; for MIC Staphylococcus aureus (GC 3051): strain GC 3051; for MIC Staphylococcus aureus (GC 3053): strain GC 3053; for MIC Staphylococcus aureus (GC 4541): strain GC 4541; for MIC Staphylococcus aureus (GC 4542): strain GC 4542; for MIC Staphylococcus aureus (GC 4545): strain GC 4545; for MIC Staphylococcus haemolyticus (GC 4546): strain GC 4546; for MIC Coagulase Negative Staphylococcus (GC 4547): strain GC 4547; for MIC Coagulase Negative Staphylococcus (GC 4548): strain GC 4548; for MIC Coagulase Negative Staphylococcus (GC 4549): strain GC 4549; for MIC Coagulase Negative Staphylococcus (GC 4551): strain GC 4551; for MIC Coagulase Negative Staphylococcus (GC 6257): strain GC 6257
In short: as §2

Enterococcus sp. = assay: as above; type: cell-based; conditions: broth dilution, 18 hours at 35° C.
In short: as §2

[5] = type: in vivo; conditions: mice, 20 mg/kg intravenously daily for 9 days, serum on day 10
Experimental: 20-day-old CD-1 mice were divided into a vehicle control group (5 mice) and a treatment group (5 mice). Samples of glycopeptide antibiotics were administered at 20 mg/kg intravenously daily for 9 days. Animals were necropsied on day 10 Sera were analyzed for BUN (blood urea nitrogen), creatinine, AST (aspartic aminotransferase), and ALT (alanine aminotransferase) by routine, standard, automated methods using an Hitachi 747 chemistry analyzer.

[6] = broth dilution, 18 hours at 35° C.

Q: Which “Anatomical Pathology (Day 10), Heart” value [1] does the source give for `CC(c1ccccc1)C1NC(=O)CNC(=O)C(CO)NC(=O)C(C(O)C2CNC(=N)N2C2OC(CO)C(O)C(O)C2O)NC(=O)C(C(O)C2CNC(=N)N2)NC(=O)C(Cc2ccc(OC3OC(CO)C(OC4OC5COC6(OC5C(O)C4O)C4CC5CC(C4)CC6C5)C(O)C3O)cc2)NC1=O` (stereo not drawn) [Example 105, Cyclo[glycyl-β-methylphenylalanyl-O-[4-O-[4,6-O-(2-adamantylidene)hexopyranosyl]hexopyranosyl]tyrosyl-3-(2-iminoimidazolidin-4-yl)seryl-3-(3-hexopyranosyl-2-iminoimidazoliclin-4-yl)serylseryl]] here?
A: +++

Q: And the “Anatomical Pathology (Day 10), Kidney” value [1]?
A: +++

Q: And the “median effective dose (ED50), Staphylococcus aureus-SMITH (GC 4543)” value [2]?
A: 0.04-0.08

Q: What about the “median effective dose (ED50), Enterococcus faecalis (GC 6189)” value [3] of the same compound?
A: 1.8-1.96

Q: What about the median effective dose (ED50), Streptococcus pneumoniae (GC 1894) [4] of the same compound?
A: 0.04 mg/kg

Q: And the “MIC Streptococcus agalactiae (GC 4564)” value (Streptococcus sp.; Streptococcus agalactiae (GC 4564))?
A: <0.06 to 0.25 µg/mL

Q: And the “MIC Streptococcus pneumoniae (ATCC 6301)” value (Streptococcus sp.; Streptococcus pneumoniae (ATCC 6301))?
A: <0.06 µg/mL

Q: And the “MIC Streptococcus pneumoniae (GC 1894)” value (Streptococcus sp.; Streptococcus pneumoniae (GC 1894))?
A: <0.06 µg/mL

Q: What about the “MIC Streptococcus pneumoniae (GC 4565)” value (Streptococcus sp.; Streptococcus pneumoniae (GC 4565)) of the same compound?
A: <0.06 µg/mL

Q: And the “MIC Streptococcus pyogenes (GC 4563)” value (Streptococcus sp.; Streptococcus pyogenes (GC 4563))?
A: <0.06 to 0.12 µg/mL

Q: And the “MIC Streptococcus agalactiae (GC 4564)” value (Streptococcus sp.; 5×10^5 CFU/mL)?
A: <0.06 to 0.25 µg/mL

Q: What about the “MIC Streptococcus pneumoniae (GC 1894)” value (Streptococcus sp.; 5×10^5 CFU/mL) of the same compound?
A: <0.06 µg/mL

Q: And the “MIC Streptococcus pneumoniae (GC 4565)” value (Streptococcus sp.; 5×10^5 CFU/mL)?
A: <0.06 µg/mL

Q: And the “MIC Streptococcus pneumonine (ATCC 6301)” value (Streptococcus sp.; 5×10^5 CFU/mL)?
A: <0.06 µg/mL

Q: And the “MIC Streptococcus pyogenes (GC 4563)” value (Streptococcus sp.; 5×10^5 CFU/mL)?
A: <0.06 to 0.12 µg/mL

Q: And the “MIC Escherichia coli (ATCC 25922)” value (Escherichia coli)?
A: 16 to 32 µg/mL

Q: What about the “MIC Escherichia coli (GC 4559)” value (Escherichia coli) of the same compound?
A: 32 µg/mL (≈ 22.4 µM)

Q: And the “MIC Escherichia coli (GC 4560)” value (Escherichia coli)?
A: 0.5 to 2 µg/mL

Q: What about the “MIC Staphylococcus aureus (ATCC 29213)” value (Staphylococcus sp.) of the same compound?
A: <0.5 to 1 µg/mL

Q: And the “MIC Staphylococcus aureus (ATCC 29213)” value (Staphylococcus sp.; [6])?
A: <0.5 to 1 µg/mL

Q: And the “MIC Staphylococcus aureus (GC 3051)” value (Staphylococcus sp.)?
A: 0.5 to 1 µg/mL

Q: And the “MIC Staphylococcus aureus (GC 3051)” value (Staphylococcus sp.; [6])?
A: 0.5 to 1 µg/mL

Q: What about the “MIC Staphylococcus aureus (GC 3053)” value (Staphylococcus sp.) of the same compound?
A: 1 to 2 µg/mL

Q: And the “MIC Staphylococcus aureus (GC 3053)” value (Staphylococcus sp.; [6])?
A: 1 to 2 µg/mL

Q: What about the “MIC Staphylococcus aureus (GC 4541)” value (Staphylococcus sp.) of the same compound?
A: <0.5 to 1 µg/mL

Q: What about the “MIC Staphylococcus aureus (GC 4541)” value (Staphylococcus sp.; [6]) of the same compound?
A: <0.5 to 1 µg/mL

Q: And the “MIC Staphylococcus aureus (GC 4542)” value (Staphylococcus sp.)?
A: 0.5 to 1 µg/mL

Q: What about the “MIC Staphylococcus aureus (GC 4542)” value (Staphylococcus sp.; [6]) of the same compound?
A: 0.5 to 1 µg/mL

Q: And the “MIC Staphylococcus aureus (GC 4545)” value (Staphylococcus sp.)?
A: <0.5 to 1 µg/mL

Q: What about the “MIC Staphylococcus aureus (GC 4545)” value (Staphylococcus sp.; [6]) of the same compound?
A: <0.5 to 1 µg/mL

Q: What about the “MIC Staphylococcus haemolyticus (GC 4546)” value (Staphylococcus sp.) of the same compound?
A: <0.5 to 1 µg/mL

Q: What about the “MIC Staphylococcus haemolyticus (GC 4546)” value (Staphylococcus sp.; [6]) of the same compound?
A: <0.5 to 1 µg/mL

Q: What about the “MIC Coagulase Negative Staphylococcus (GC 4547)” value (Staphylococcus sp.) of the same compound?
A: 0.5 to 1 µg/mL

Q: What about the “MIC Coagulase Negative Staphylococcus (GC 4547)” value (Staphylococcus sp.; [6]) of the same compound?
A: 0.5 to 1 µg/mL

Q: What about the “MIC Coagulase Negative Staphylococcus (GC 4548)” value (Staphylococcus sp.) of the same compound?
A: <0.5 to 1 µg/mL

Q: And the “MIC Coagulase Negative Staphylococcus (GC 4548)” value (Staphylococcus sp.; [6])?
A: <0.5 to 1 µg/mL

Q: What about the “MIC Coagulase Negative Staphylococcus (GC 4549)” value (Staphylococcus sp.) of the same compound?
A: 0.5 to 1 µg/mL

Q: What about the “MIC Coagulase Negative Staphylococcus (GC 4549)” value (Staphylococcus sp.; [6]) of the same compound?
A: 0.5 to 1 µg/mL

Q: And the “MIC Coagulase Negative Staphylococcus (GC 4551)” value (Staphylococcus sp.)?
A: <0.5 to 1 µg/mL

Q: What about the “MIC Coagulase Negative Staphylococcus (GC 4551)” value (Staphylococcus sp.; [6]) of the same compound?
A: <0.5 to 1 µg/mL

Q: What about the “MIC Coagulase Negative Staphylococcus (GC 6257)” value (Staphylococcus sp.) of the same compound?
A: 0.5 to 1 µg/mL

Q: What about the “MIC Coagulase Negative Staphylococcus (GC 6257)” value (Staphylococcus sp.; [6]) of the same compound?
A: 0.5 to 1 µg/mL

Q: What about the “MIC Enterococcus avium (GC 4558)” value (Enterococcus sp.; Enterococcus avium (GC 4558)) of the same compound?
A: 1 to 2 µg/mL

Q: And the “MIC Enterococcus faecalis (ATCC 29212)” value (Enterococcus sp.; Enterococcus faecalis (ATCC 29212))?
A: 1 to 2 µg/mL

Q: And the “MIC Enterococcus faecalis (GC 2242)” value (Enterococcus sp.; Enterococcus faecalis (GC 2242))?
A: 0.5 to 2 µg/mL

Q: And the “MIC Enterococcus faecalis (GC 2691)” value (Enterococcus sp.; Enterococcus faecalis (GC 2691))?
A: 1 to 2 µg/mL

Q: And the “MIC Enterococcus faecalis (GC 3059)” value (Enterococcus sp.; Enterococcus faecalis (GC 3059))?
A: 1 to 2 µg/mL

Q: What about the “MIC Enterococcus faecalis (GC 4552)” value (Enterococcus sp.; Enterococcus faecalis (GC 4552)) of the same compound?
A: 1 to 2 µg/mL

Q: And the “MIC Enterococcus faecalis (GC 4553)” value (Enterococcus sp.; Enterococcus faecalis (GC 4553))?
A: 1 to 2 µg/mL

Q: And the “MIC Enterococcus faecalis (GC 4554)” value (Enterococcus sp.; Enterococcus faecalis (GC 4554))?
A: 1 to 2 µg/mL

Q: And the “MIC Enterococcus faecalis (GC 6189)” value (Enterococcus sp.; Enterococcus faecalis (GC 6189))?
A: 1 to 2 µg/mL

Q: And the “MIC Enterococcus faecium (GC 2243)” value (Enterococcus sp.; Enterococcus faecium (GC 2243))?
A: 1 to 2 µg/mL

Q: What about the “MIC Enterococcus faecium (GC 4556)” value (Enterococcus sp.; Enterococcus faecium (GC 4556)) of the same compound?
A: 0.5 to 2 µg/mL

Q: And the “MIC Enterococcus faecium (GC 4557)” value (Enterococcus sp.; Enterococcus faecium (GC 4557))?
A: 1 to 2 µg/mL

Q: And the “MIC Enterococccus avium (GC 4558)” value (Enterococcus sp.; 5×10^5 CFU/mL)?
A: 1 to 2 µg/mL

Q: What about the “MIC Enterococccus faecalis (ATCC 29212)” value (Enterococcus sp.; 5×10^5 CFU/mL) of the same compound?
A: 1 to 2 µg/mL

Q: What about the “MIC Enterococccus faecalis (GC 2691)” value (Enterococcus sp.; 5×10^5 CFU/mL) of the same compound?
A: 1 to 2 µg/mL

Q: And the “MIC Enterococccus faecalis (GC 3059)” value (Enterococcus sp.; 5×10^5 CFU/mL)?
A: 1 to 2 µg/mL

Q: What about the “MIC Enterococccus faecalis (GC 4552)” value (Enterococcus sp.; 5×10^5 CFU/mL) of the same compound?
A: 1 to 2 µg/mL

Q: And the “MIC Enterococccus faecalis (GC 4553)” value (Enterococcus sp.; 5×10^5 CFU/mL)?
A: 1 to 2 µg/mL

Q: What about the “MIC Enterococccus faecalis (GC 4554)” value (Enterococcus sp.; 5×10^5 CFU/mL) of the same compound?
A: 1 to 2 µg/mL

Q: What about the “MIC Enterococccus faecalis (GC 6189)” value (Enterococcus sp.; 5×10^5 CFU/mL) of the same compound?
A: 1 to 2 µg/mL

Q: And the “MIC Enterococccus faecium (GC 2243)” value (Enterococcus sp.; 5×10^5 CFU/mL)?
A: 1 to 2 µg/mL

Q: What about the “MIC Enterococccus faecium (GC 4556)” value (Enterococcus sp.; 5×10^5 CFU/mL) of the same compound?
A: 0.5 to 2 µg/mL

Q: What about the “MIC Enterococccus faecium (GC 4557)” value (Enterococcus sp.; 5×10^5 CFU/mL) of the same compound?
A: 1 to 2 µg/mL

Q: And the “MIC Enterococcus faecalis (GC 2242)” value (Enterococcus sp.; 5×10^5 CFU/mL)?
A: 0.5 to 2 µg/mL

Q: What about the “Clinical Chemistry (Day 10) % of Control, ALT” value [5] of the same compound?
A: +480%

Q: And the “Clinical Chemistry (Day 10) % of Control, AST” value [5]?
A: +205%

Q: What about the “Clinical Chemistry (Day 10) % of Control, BUN” value [5] of the same compound?
A: +35%
